Target: T1, USP7 (Homo sapiens, UniProt Q93009)
T1 construct: USP7, construct USP7 (208-1102) 6*His, Viva Biotech; 6xHis (C); purchased Viva Biotech
Experiment: USP7 Assay A (Ubitquin-Rhodamine 110 Assay)
Format: biochemical
Details: USP7 activity in USP7 assay A and B (table does not say which assay per compound); read-out: USP7_IC50
Method: Each assay was performed in a final volume of 15 μL in assay buffer containing 20 mM Tris-HCl (pH 8.0, (1M Tris-HCl, pH 8.0 solution; Corning 46-031-CM)), 1 mM GSH (L-Glutathione reduced; Sigma #G4251), 0.03% BGG ([…], Sigma, #G7516-25G), and 0.01% Triton X-100 (Sigma, #T9284-10L). […] 5 μL of 2× enzyme was added to assay plates (pre-stamped with compound) preincubated with USP7 for 30 minutes and then 5 μL of 2×Ub-Rh110 was added to assay plates. […] Fluorescence was read on the Envision (Excitation at 485 nm and Emission at 535 nm; Perkin Elmer) or on the PheraSTAR (Excitation at 485 nm and Emission at 535 nm; BMG Labtech).
Data from USP7 Assays A and B were reported as percent inhibition (inh) compared with control wells based on the following equation: % inh=1−((FLU−AveLow)/(AveHigh−AveLow)) where FLU=measured Fluorescence (See Tables 6-10). AveLow=average Fluorescence of no enzyme control (n=16). AveHigh=average Fluorescence of DMSO control (n=16). […] Data is fitted using the Levenburg Marquardt algorithm.

T1 sequence (Q93009 208-1102): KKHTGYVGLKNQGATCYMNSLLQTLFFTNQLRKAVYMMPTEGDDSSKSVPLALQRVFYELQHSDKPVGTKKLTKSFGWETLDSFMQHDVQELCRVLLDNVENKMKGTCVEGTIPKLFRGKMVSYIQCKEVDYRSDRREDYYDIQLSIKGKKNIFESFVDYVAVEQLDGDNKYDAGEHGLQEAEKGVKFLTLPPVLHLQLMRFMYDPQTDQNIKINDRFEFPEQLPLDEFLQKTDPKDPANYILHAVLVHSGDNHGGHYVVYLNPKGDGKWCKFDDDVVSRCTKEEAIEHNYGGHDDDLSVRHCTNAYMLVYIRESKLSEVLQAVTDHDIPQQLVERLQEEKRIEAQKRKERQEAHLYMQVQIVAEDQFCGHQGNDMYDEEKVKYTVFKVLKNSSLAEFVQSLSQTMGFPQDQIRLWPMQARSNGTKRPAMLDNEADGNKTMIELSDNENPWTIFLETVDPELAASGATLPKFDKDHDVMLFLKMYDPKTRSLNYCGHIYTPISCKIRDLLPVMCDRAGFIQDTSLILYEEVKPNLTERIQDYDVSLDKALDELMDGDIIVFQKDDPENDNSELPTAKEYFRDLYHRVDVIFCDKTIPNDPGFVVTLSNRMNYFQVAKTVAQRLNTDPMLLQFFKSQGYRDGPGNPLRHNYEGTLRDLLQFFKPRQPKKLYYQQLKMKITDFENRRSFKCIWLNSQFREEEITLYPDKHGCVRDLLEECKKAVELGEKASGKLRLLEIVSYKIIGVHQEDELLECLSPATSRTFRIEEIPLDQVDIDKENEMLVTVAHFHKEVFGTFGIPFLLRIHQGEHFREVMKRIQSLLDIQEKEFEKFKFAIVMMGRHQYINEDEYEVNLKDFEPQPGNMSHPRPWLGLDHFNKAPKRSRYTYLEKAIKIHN

Row | SMILES | IC50
1 | O=C(C1CCC(OC2CCOCC2)CC1)N1CCC(O)(Cn2cnc3c(cnn3-c3ccc(F)cc3)c2=O)CC1 (stereo not drawn) [Compound I-925] | 1000 to 10000 nM
2 | O=C(C[C@H](C(F)F)n1cccn1)N1CCC(O)(Cn2cnc3c(cnn3-c3ccc(Cl)cc3)c2=O)CC1 [Compound I-1131] | 1000 to 10000 nM
3 | O=C(c1cnc(C2CC2)o1)N1CCC(O)(Cn2cnc3c(cnn3-c3ccc(C4CC4)cc3)c2=O)CC1 [Compound I-629] | < 200 nM
4 | O=C(C1CC(Nc2cccnc2)C1)N1CCC(O)(Cn2cnc3c(cnn3-c3ccc(F)cc3)c2=O)CC1 (stereo not drawn) [Compound I-1030] | 200 to 1000 nM
5 | Cc1cc2c(=O)n(CC3(O)CCN(C(=O)c4cnc(C5CC5)o4)CC3)cnc2n1-c1ccc(F)cc1 [Compound I-850] | 200 to 1000 nM
6 | O=C(C1CCC(Oc2ccccn2)CC1)N1CCC(O)(Cn2cnc3c(ccn3-c3ccc(F)cc3)c2=O)CC1 (stereo not drawn) [Compound I-1124] | < 200 nM
7 | O=C(C1CC1)N1CCC(O)(Cn2cnc3c(cnn3-c3ccc(-c4cnn5c4COCC5)cc3)c2=O)CC1 [Compound I-1673] | 1000 to 10000 nM
8 | O=C(C[C@@H](C(F)F)n1ccc(F)n1)N1CCC(O)(Cn2cnc3c(cnn3-c3cccc(N4CCOCC4)c3)c2=O)CC1 [Compound I-789] | < 200 nM
9 | O=C(c1ccc(-n2cc(CO)cn2)cc1)N1CCC(O)(Cn2cnc3c(cnn3-c3ccc(F)cc3)c2=O)CC1 [Compound I-612] | 1000 to 10000 nM
10 | O=C(C[C@H](n1cccn1)C(F)(F)F)N1CCC(O)(Cn2cnc3c(cnn3-c3ccc(F)cc3)c2=O)CC1 [Compound I-912] | 1000 to 10000 nM
11 | O=C(C[C@H](C(F)F)n1ccc(F)n1)N1CCC(O)(Cn2cnc3c(cnn3-c3ccc(Cl)cc3)c2=O)CC1 [Compound I-1167] | 1000 to 10000 nM
12 | O=C(c1cnc(N2CCOCC2)o1)N1CCC(O)(Cn2cnc3c(cnn3-c3ccc(-c4ccccc4)cc3)c2=O)CC1 [Compound I-643] | 200 to 1000 nM
13 | CC1(C(=O)N2CCC(O)(Cn3cnc4c(cnn4-c4ccc(F)cc4)c3=O)CC2)CCC(Oc2ccccn2)CC1 (stereo not drawn) [Compound I-745] | 1000 to 10000 nM
14 | C=CC(=O)N1CCC1C(=O)N1CCC(O)(Cn2cnc3c(cnn3-c3ccc(N4CCN(C)CC4)cc3)c2=O)CC1 (stereo not drawn) [Compound I-832] | < 200 nM
15 | O=C(C1CC(Nc2ccccn2)C1)N1CCC(O)(Cn2cnc3c(cnn3-c3ccc(F)cc3)c2=O)CC1 (stereo not drawn) [Compound I-1034] | 1000 to 10000 nM
16 | O=C(C1CC(Nc2ccccn2)C1)N1CCC(O)(Cn2cnc3c(cnn3-c3ccc(F)cc3)c2=O)CC1 (stereo not drawn) [Compound I-1035] | 200 to 1000 nM
17 | O=C(C[C@H](C(F)F)n1ccc(F)n1)N1CCC(O)(Cn2cnc3c(cnn3-c3cccc(N4CCOCC4)c3)c2=O)CC1 [Compound I-788] | 1000 to 10000 nM

Row | SMILES | IC50
18 | CC1(C(=O)N2CCC(O)(Cn3cnc4c(cnn4-c4ccc(-n5cc(Cl)cn5)cc4)c3=O)CC2)CC1 [Compound I-1045] | < 200 nM
19 | O=C(C[C@@H](C(F)F)n1ccc(F)n1)N1CCC(O)(Cn2cnc3c(cnn3-c3cccc(N4CC5CC5C4)c3)c2=O)CC1 (stereo partly drawn) [Compound I-790] | < 200 nM
20 | CC1(C(=O)N2CCC(O)(Cn3cnc4c(cnn4-c4ccc(F)cc4)c3=O)CC2)CCC(Oc2ccccn2)CC1 (stereo not drawn) [Compound I-746] | 1000 to 10000 nM
21 | O=C(c1cnn(C2CC2)c1)N1CCC(O)(Cn2cnc3c(cnn3-c3ccc(C4CC4)cc3)c2=O)CC1 [Compound I-798] | 200 to 1000 nM
22 | O=C(c1ccc(N2CCCN3CCCC3C2)cc1)N1CCC(O)(Cn2cnc3c(cnn3-c3ccc(F)cc3)c2=O)CC1 (stereo not drawn) [Compound I-1683] | 1000 to 10000 nM
23 | C[C@@H]1CN(c2ccc(-n3ncc4c(=O)n(CC5(O)CCN(C(=O)C6(C)CC6)CC5)cnc43)cc2)C[C@H](C)N1C [Compound I-1638] | < 200 nM
24 | Cc1snc(Cc2ccccc2)c1C(=O)N1CCC(O)(Cn2cnc3c(cnn3-c3ccc(F)cc3)c2=O)CC1 [Compound I-1110] | < 200 nM
25 | CC1(C(=O)N2CCC(O)(Cn3cnc4c(cnn4-c4cccc(N5CCC(F)(F)CC5)c4)c3=O)CC2)CC1 [Compound I-1675] | < 200 nM
26 | O=C(c1cnc(C2CC2)o1)N1CCC(O)(Cn2cnc3c(ccn3-c3ccc(F)cc3)c2=O)CC1 [Compound I-849] | < 200 nM
27 | O=C(c1ccc(N2CCN3CCCC3C2)cc1)N1CCC(O)(Cn2cnc3c(cnn3-c3ccc(F)cc3)c2=O)CC1 (stereo not drawn) [Compound I-487] | 1000 to 10000 nM
28 | Cn1cc(C2CCC(C(=O)N3CCC(O)(Cn4cnc5c(cnn5-c5ccc(F)cc5)c4=O)CC3)CC2)cn1 (stereo not drawn) [Compound I-728] | 200 to 1000 nM
29 | Cc1cnn([C@@H](CC(=O)N2CCC(O)(Cn3cnc4c(cnn4-c4ccc(F)cc4)c3=O)CC2)C(F)F)c1 (single isomer, unassigned) [Compound I-736] | > 10000 nM
30 | CN1CC[C@H](Oc2ccc(-c3ccc(-n4ncc5c(=O)n(CC6(O)CCN(C(=O)C7CC7)CC6)cnc54)cc3)cc2)C1 [Compound I-680] | 200 to 1000 nM
31 | O=C(C1CCC(Oc2ccccn2)CC1)N1CCC(O)(Cn2cnc3c(ccn3-c3ccc(F)cc3)c2=O)CC1 (stereo not drawn) [Compound I-1038] | < 200 nM
32 | Cn1ncc2c(=O)n(CC3(O)CCN(C(=O)CC(C(F)F)n4ccc(F)n4)CC3)cnc21 (single isomer, unassigned) [Compound I-1698] | > 10000 nM
33 | Cn1ccc(NC2CCC(C(=O)N3CCC(O)(Cn4cnc5c(cnn5-c5ccc(F)cc5)c4=O)CC3)CC2)n1 (stereo not drawn) [Compound I-765] | 1000 to 10000 nM
34 | Cc1onc(Cc2ccccc2)c1C(=O)N1CCC(O)(Cn2cnc3c(cnn3-c3ccc(F)cc3)c2=O)CC1 [Compound I-1164] | < 200 nM

Same assay, conditions: USP7 assay A and B (table does not say which assay per compound); read-out: USP7_IC50

Row | SMILES | IC50
35 | Cc1cccc(C(=O)N2CCC(O)(Cn3cnc4c(cnn4-c4ccccc4)c3=O)CC2)c1F [Compound I-206] | 1000 to 10000 nM
36 | Cc1cc(C)c(-n2ncc3c(=O)n(CC4(O)CCN(C(=O)C5CC5)CC4)cnc32)c(C)c1 [Compound I-26] | > 10000 nM
37 | O=C(C1CC1)N1CCC(O)(Cn2cnc3c(cnn3-c3cccc(N4CCCCC4)c3)c2=O)CC1 [Compound I-1202] | 1000 to 10000 nM
38 | O=C(c1ccnc(Cl)c1)N1CCC(O)(Cn2cnc3c(cnn3-c3ccccc3)c2=O)CC1 [Compound I-287] | 1000 to 10000 nM
39 | Cc1cc(C(=O)N2CCC(O)(Cn3cnc4c(cnn4-c4ccccc4)c3=O)CC2)ccc1Cl [Compound I-212] | 200 to 1000 nM
40 | CNC(=O)N1CCC(O)(Cn2cnc3c(cnn3-c3ccc(-c4ccc(F)cc4)cc3)c2=O)CC1 [Compound I-655] | 1000 to 10000 nM
41 | CS(=O)(=O)c1ccc(-n2ncc3c(=O)n(CC4(O)CCN(C(=O)C5CC5)CC4)cnc32)cc1 [Compound I-31] | 1000 to 10000 nM
42 | C[C@@H](CC(=O)N1CCC(O)(Cn2cnc3c(cnn3-c3ccccc3)c2=O)CC1)n1cccn1 [Compound I-176] | 1000 to 10000 nM
43 | Cc1ccccc1S(=O)(=O)Nc1ccc(-n2ncc3c(=O)n(CC4(O)CCN(C(=O)C5CC5)CC4)cnc32)cc1 [Compound I-1425] | 1000 to 10000 nM
44 | COc1cc(OC)cc(C(=O)N2CCC(O)(Cn3cnc4c(cnn4-c4ccccc4)c3=O)CC2)c1 [Compound I-203] | > 10000 nM
45 | O=C(C1CC1)N1CCC(O)(Cn2cnc3c(cnn3-c3ccc(-c4cccc(F)c4)cc3)c2=O)CC1 [Compound I-330] | 1000 to 10000 nM
46 | O=C(C[C@H](c1ccccc1)C(F)F)N1CCC(O)(Cn2cnc3c(cnn3-c3ccccc3)c2=O)CC1 [Compound I-1104] | 1000 to 10000 nM
47 | C#CC(=O)NC1CC(C(=O)N2CCC(O)(Cn3cnc4c(cnn4-c4ccccc4)c3=O)CC2)C1 (stereo not drawn) [Compound I-259] | 1000 to 10000 nM
48 | Cc1nnc(-c2ccc(C(=O)N3CCC(O)(Cn4cnc5c(cnn5-c5ccc(F)cc5)c4=O)CC3)cc2)o1 [Compound I-911] | 1000 to 10000 nM
49 | CC1(C(=O)N2CCC(O)(Cn3cnc4c(cnn4-c4ccc(-c5cnn(C(F)F)c5)cc4)c3=O)CC2)CC1 [Compound I-1800] | < 200 nM
50 | O=C(c1cnc(C2CC2)o1)N1CCC(O)(Cn2cnc3c(cnn3-c3ccc(C(F)(F)F)cc3)c2=O)CC1 [Compound I-1437] | 1000 to 10000 nM
51 | N#Cc1cccc(-c2cccc(-n3ncc4c(=O)n(CC5(O)CCN(C(=O)C6CC6)CC5)cnc43)c2)c1 [Compound I-359] | 1000 to 10000 nM
52 | N#Cc1cccc(COc2ccc(-n3ncc4c(=O)n(CC5(O)CCN(C(=O)c6ccc(F)cc6)CC5)cnc43)cc2)c1 [Compound I-1318] | 1000 to 10000 nM
53 | O=C(c1ccc(C(F)(F)F)nc1)N1CCC(O)(Cn2cnc3c(cnn3-c3ccc(F)cc3)c2=O)CC1 [Compound I-422] | > 10000 nM
54 | O=C(c1ccc(OC(F)F)cc1)N1CCC(O)(Cn2cnc3c(cnn3-c3cnn(C4CC4)c3)c2=O)CC1 [Compound I-705] | 1000 to 10000 nM
55 | Cc1ccc(-n2ncc3c(=O)n(CC4(O)CCN(C(=O)C[C@@H](c5ccccc5)C(F)(F)F)CC4)cnc32)cc1 [Compound I-145] | < 200 nM
56 | Cc1ccc(-n2ncc3c(=O)n(CC4(O)CCN(C(=O)C[C@@H](C(F)F)n5cccn5)CC4)cnc32)cc1 [Compound I-1061] | 1000 to 10000 nM
57 | O=C(C1CC1)N1CCC(O)(Cn2cnc3c(cnn3-c3ccc(CN4CCCCC4)cc3)c2=O)CC1 [Compound I-431] | 1000 to 10000 nM
58 | O=C(c1ccc(Oc2ncccn2)cc1)N1CCC(O)(Cn2cnc3c(cnn3-c3ccc(Cl)cc3)c2=O)CC1 [Compound I-1528] | 1000 to 10000 nM
59 | O=C(C1CC1)N1CCC(O)(Cn2cnc3c(cnn3-c3ccc(Cl)c(Cl)c3)c2=O)CC1 [Compound I-33] | 1000 to 10000 nM
60 | O=C(C1CC1)N1CCC(O)(Cn2cnc3c(cnn3-c3ccc(CN4CCc5ccccc5C4)cc3)c2=O)CC1 [Compound I-437] | 1000 to 10000 nM

Source: patent US9902728B2, “Pyrrolo and pyrazolopyrimidines as ubiquitin-specific protease 7 inhibitors” (Forma Therapeutics, Inc., priority 2014, dated 2018)
